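Tested at 5 concentrations; 48 h exposure; 96-well plates; endpoints linearly interpolated, else capped at highest concentration. GI50 = concentration required for 50% inhibition of growth. TGI: concentration producing complete growth inhibition.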
Legend:
Test in all cases: growth of human tumour cells (NCI), 48 h
EKVX NSCLC = tested on: EKVX NSCLC
MDA-MB-435 = tested on: MDA-MB-435
SNB-19 CNS = tested on: SNB-19 CNS
NCI/ADR-RES ovarian = tested on: NCI/ADR-RES ovarian
K-562 leukemia = tested on: K-562 leukemia
RXF 393 renal = tested on: RXF 393 renal
KM12 colon = tested on: KM12 colon
MCF7 breast = tested on: MCF7 breast

Compound	GI50 (EKVX NSCLC)	TGI (EKVX NSCLC)	GI50 (MDA-MB-435)	TGI (MDA-MB-435)	GI50 (SNB-19 CNS)	TGI (SNB-19 CNS)	GI50 (NCI/ADR-RES ovarian)	TGI (NCI/ADR-RES ovarian)	GI50 (K-562 leukemia)	TGI (K-562 leukemia)	GI50 (RXF 393 renal)	TGI (RXF 393 renal)	GI50 (KM12 colon)	TGI (KM12 colon)	GI50 (MCF7 breast)	TGI (MCF7 breast)
COc1ccc(OC)c(/C=C2\COc3ccc(O)c(O)c3C2=O)c1	3.26 µM	12.2 µM	1.97 µM	5.48 µM	3.09 µM	11.1 µM	2.51 µM	10.9 µM	2.17 µM	> 100 µM	1.83 µM	3.58 µM	1.73 µM	3.92 µM	1.2 µM	14.4 µM
COc1cc(C2CC(c3ccccc3)=NN2C(C)=O)cc(OC)c1OC (stereo unspecified)	6.41 µM	> 100 µM	0.428 µM	8.27 µM	5.63 µM	> 100 µM	2.8 µM	> 26.1 µM	2.77 µM	> 100 µM	4.14 µM	> 48.2 µM	1.42 µM	> 100 µM	2.26 µM	> 100 µM
O=C(O)c1c[nH]c2c(OCc3ccccc3)c3ccccc3c(O)c2c1=O			2.18 µM	4.08 µM	17.7 µM	42.9 µM	16.5 µM	47.7 µM	3.2 µM	> 100 µM	23.4 µM	45.6 µM	12.6 µM	29.4 µM	14.9 µM	34.3 µM
Cc1ccc(NC2=C(Cl)C(=O)N(Cc3ccccc3)C2=O)cc1Cl	14.1 µM	28.9 µM	5.29 µM	25.7 µM	11.2 µM	34.7 µM	6.11 µM	20.6 µM	3.69 µM	25.8 µM	2.33 µM	10.6 µM	13.7 µM	26.6 µM	3.3 µM	13.7 µM
Cc1ccc(-c2nc(N)c(C#N)c3c2CCOc2c-3ccc3ccccc23)cc1	3.12 µM		0.0309 µM	0.459 µM	2.08 µM	> 100 µM	0.331 µM	31.5 µM	0.0614 µM	> 40.8 µM	0.266 µM	6.29 µM	0.203 µM	48.6 µM	0.284 µM	> 34.4 µM
O=C(Cc1ccccc1)NC(c1ccc(Cl)cc1)c1c(O)ccc2ccccc12 (stereo unspecified)			2.91 µM	10.7 µM	3.25 µM	13.8 µM	3.41 µM	11.5 µM	3.1 µM	26.3 µM	2.17 µM	8.03 µM	3.62 µM	11.7 µM	2.66 µM	9.37 µM
O=C(NCCNc1nccc(-c2c(-c3ccc(F)cc3)nc3sccn23)n1)c1ccccc1	7.51 µM	56.1 µM	2.69 µM	14 µM	11.9 µM	> 100 µM	7.13 µM	76.4 µM	7.72 µM	> 100 µM	6.19 µM	28.3 µM	7.6 µM	22.4 µM	1.43 µM	17.3 µM
N#C/C(=C1C=C/C(=N\O)C(Cl)=C\1)c1ccccc1			0.542 µM	2.66 µM	22.1 µM	> 100 µM	1.66 µM	5.17 µM	2.27 µM	13.5 µM	4.72 µM	18.2 µM	0.772 µM	10.4 µM	0.321 µM	11.5 µM
CCC1CC(C)=CCN1S(=O)(=O)c1ccc(C)cc1 (stereo unspecified)		> 100 µM				> 100 µM				> 100 µM				70.8 µM		
CS(=O)(=O)c1ccc(Oc2cc(F)cc(C#N)c2)c2c1[C@H](O)C(F)(F)C2	> 100 µM	> 100 µM	> 100 µM	> 100 µM	> 100 µM	> 100 µM	> 100 µM	> 100 µM	> 100 µM	> 100 µM	> 100 µM	> 100 µM	> 100 µM	> 100 µM	> 100 µM	> 100 µM
O=C1/C(=C/c2ccccc2F)CN(C(=O)C(Cl)Cl)C/C1=C\c1ccccc1F	0.451 µM	2.06 µM	0.313 µM	1.01 µM	0.349 µM	1.46 µM	0.342 µM	2.64 µM	< 0.04 µM	> 100 µM	0.584 µM	1.75 µM	0.245 µM	0.685 µM	0.101 µM	0.983 µM
Cc1sc(NC2=NC(=O)/C(=C\c3ccccc3)S2)nc1-c1nc(NC2=NC(=O)/C(=C\c3ccccc3)S2)sc1C	0.0627 µM	1.94 µM	16.3 µM	> 50 µM	26 µM	> 50 µM	14.4 µM	43.8 µM	13.2 µM	> 35 µM	> 24.2 µM	> 40.2 µM	11.1 µM	> 37.9 µM	16.2 µM	> 50 µM
C=C(C)[C@@H]1CC[C@]2(C(=O)O)CC[C@]3(C)[C@H](CC[C@@H]4[C@@]5(C)C/C(=C/c6ccc(OC)cc6)C(=O)C(C)(C)[C@@H]5CC[C@]43C)[C@@H]12	2.36 µM	10.5 µM	1.84 µM	4.02 µM	3.07 µM	17 µM	2.84 µM	13.3 µM	2.21 µM	> 100 µM	2.1 µM	5.26 µM	1.71 µM	4.12 µM	2.59 µM	7.74 µM
COc1ccc(-c2nc(N3CCOCC3)c3sc(CN(C)c4ncc(C(=O)NO)cn4)cc3n2)cn1			< 0.01 µM	0.0284 µM	< 0.01 µM	0.0907 µM			< 0.01 µM	> 100 µM	< 0.0122 µM	0.0453 µM			< 0.01 µM	0.366 µM
O=C(NC1CCCCC1)NS(=O)(=O)c1ccc(-n2nc3c(c2-c2ccc(Cl)cc2)Cc2ccccc2-3)cc1	14.2 µM	37.7 µM	8.27 µM	28.1 µM	43.7 µM	> 100 µM			2.15 µM	5.89 µM	20 µM	75.2 µM	10.6 µM	30.4 µM	15.3 µM	45.7 µM
COc1nc(N)nc2c1ncn2[C@@H]1O[C@H](CO)[C@@H](O)[C@@H]1O	> 100 µM	> 100 µM	> 100 µM	> 100 µM	> 100 µM	> 100 µM	> 100 µM	> 100 µM	> 100 µM	> 100 µM	> 100 µM	> 100 µM	> 100 µM	> 100 µM	> 100 µM	> 100 µM

Compound	GI50 (EKVX NSCLC)	TGI (EKVX NSCLC)	GI50 (MDA-MB-435)	TGI (MDA-MB-435)	GI50 (SNB-19 CNS)	TGI (SNB-19 CNS)	GI50 (NCI/ADR-RES ovarian)	TGI (NCI/ADR-RES ovarian)	GI50 (K-562 leukemia)	TGI (K-562 leukemia)	GI50 (RXF 393 renal)	TGI (RXF 393 renal)	GI50 (KM12 colon)	TGI (KM12 colon)	GI50 (MCF7 breast)	TGI (MCF7 breast)
Cc1cc(=O)oc2c(OS(C)(=O)=O)c(OS(C)(=O)=O)ccc12		> 100 µM		> 100 µM		> 100 µM		> 100 µM		> 100 µM				> 100 µM		> 100 µM
CCn1c(-c2nonc2N)nc2cncc(C(=O)NCCNC)c21	0.903 µM	> 25 µM	2.64 µM	> 25 µM	> 25 µM	> 25 µM	18.9 µM	> 25 µM	> 25 µM	> 25 µM	2.57 µM	> 25 µM	> 25 µM	> 25 µM	1.92 µM	> 25 µM
COc1cc(/C=C2\C(=O)N(c3ccccc3)c3ccccc32)cc(OC)c1OC	23.5 µM	65.6 µM	5.85 µM	36.6 µM	6.1 µM	25.5 µM	6.37 µM	27.1 µM	3.04 µM	> 100 µM	0.107 µM	2.87 µM	3.84 µM	20.1 µM	8.05 µM	> 100 µM
COC1=CC(c2ccc[nH]2)=N/C1=C\c1[nH]c(C)c(C(C)=O)c1C	2.25 µM	> 100 µM	0.299 µM	> 100 µM	24.2 µM	> 100 µM	0.458 µM	> 100 µM	3.28 µM	> 45.4 µM			0.262 µM	> 100 µM	1.05 µM	> 100 µM
Clc1ccc(C2=NN[C@H](c3cn(-c4ccccc4)nc3-c3ccccc3)C2)cc1	3.16 µM	18.8 µM	5.13 µM	> 100 µM	7.08 µM	24.8 µM	3.17 µM	12.7 µM	4.8 µM	> 100 µM	2.48 µM	8.08 µM	11.1 µM	> 100 µM	4.8 µM	17.9 µM
COc1ccc2c(c1)/C(=C\c1c(Cl)n(C)c3ccccc13)C(=O)N2	3.95 µM	24.4 µM	0.286 µM	1.26 µM	1.85 µM	23 µM	0.629 µM	2.03 µM	3.71 µM	> 100 µM	1.53 µM	8.23 µM	9.06 µM	26.4 µM	0.682 µM	> 38.7 µM
COc1cccc(Cn2c(-c3nonc3NC(C)=O)nc3ccccc32)c1			0.642 µM	5.48 µM	7.15 µM	> 100 µM	3.24 µM	> 100 µM	4.02 µM	> 100 µM	1.92 µM	5.74 µM	4 µM	> 100 µM	4.04 µM	> 100 µM
C=CC[C@@H]1/C=C(\C)C[C@H](C)C[C@H](OC)[C@H]2O[C@@](O)(C(=O)C(=O)N3CCCC[C@H]3C(=O)O[C@H](/C(C)=C/C3CC[C@@H](O)[C@H](OC)C3)[C@H](C)[C@@H](O)CC1=O)[C@H](C)C[C@@H]2OC (stereo partly specified)	14.2 µM	34.5 µM	16.2 µM	37.7 µM	15.6 µM	30.4 µM	15 µM	35.3 µM	18.7 µM	52 µM	13.6 µM	27.3 µM	14.9 µM	28.7 µM	13.8 µM	29 µM
COc1cc(-n2cnc(-c3ccc(Cl)cc3)c2)cc(OC)c1OC	> 100 µM	> 100 µM	38.4 µM	> 100 µM	> 100 µM	> 100 µM	16.9 µM	45.1 µM	7.33 µM	29.5 µM			> 100 µM	> 100 µM	17.9 µM	34.7 µM
Cc1nn(-c2ccccc2)c2nc3c(nc12)C1=NCCN1C(c1ccc(Cl)cc1)N3 (stereo unspecified)			1.85 µM	3.74 µM	9.91 µM	26.9 µM	13.4 µM	32 µM	2.42 µM	6.19 µM	1.56 µM	3.07 µM	3.62 µM	12.2 µM		
CC(C)n1c(=O)n(C)c2cnc3cc(F)c(-c4ccc(OCCCN5CCCCC5)nc4)cc3c21	8.19 µM	48.9 µM	17 µM	71.4 µM	17.4 µM	77.5 µM	12.4 µM	81.3 µM					4.19 µM	28.8 µM	7.46 µM	21.6 µM
CCCC(=O)Nc1ccc2c(c1)CN1C(=O)c3ccccc3C1=N2				> 100 µM		> 100 µM		> 100 µM						> 100 µM		> 100 µM
Oc1ccc(-c2cn3cc(Cl)sc3n2)cc1	47.6 µM	> 100 µM	32.3 µM	> 100 µM	58.8 µM	> 100 µM			36.7 µM	> 100 µM	> 100 µM	> 100 µM	20.9 µM	74.1 µM	6.77 µM	26.9 µM
COc1ccc(CCN2CCC(Nc3nc4ccccc4n3Cc3ccc(F)cc3)CC2)cc1	1.79 µM	5.35 µM	1.5 µM	3 µM	1.77 µM	3.93 µM	1.59 µM	3.32 µM			1.16 µM	2.44 µM	1.71 µM	3.13 µM	1.41 µM	2.81 µM
O=C1NC(c2c(Cl)cccc2Cl)Nc2ccccc21 (stereo unspecified)		> 100 µM		33 µM		> 100 µM		> 100 µM				> 100 µM		43.7 µM		> 100 µM
CCN(CC)CCCCNc1ncc2cc(-c3cc(OC)cc(OC)c3)c(NC(=O)NC(C)(C)C)nc2n1			4.87 µM	18.2 µM	13.7 µM	28.7 µM	8.01 µM	27.3 µM	2.95 µM	9.37 µM	1.63 µM	11.4 µM	9.65 µM	23 µM	5.35 µM	23.1 µM
